Measurements reported in patent publication US20230149510A1, “METHOD FOR ALLEVIATING ARTHRITIS USING EPIDERMAL GROWTH FACTOR” (Lovin BioMed Co., Ltd., priority 2021, published 2023).

Test system: serum COMP, TNF-α, IL-1β, IL-6, IL-17A, PGE2 and NO in MIA-induced OA
Assay: OA biomarkers and inflammatory markers in serum sample (ELISA, Griess assay), MIA-induced OA
Assay type: in vivo, Sprague Dawley rats
Conditions: rat serum; for content of cartilage oligomeric matrix protein (COMP): day 28, FIG. 3; for content of IL-1β / content of IL-6 / content of IL-17A / content of TNF-α: day 28, FIG. 4; for content of PGE2: day 28, FIG. 5; for content of NO: day 28, Griess assay, FIG. 5
Method: The Sprague Dawley rats were divided into five groups, including one normal control group, one pathological control group, one comparative group, and two experimental groups (i.e., experimental groups 1 to 2) (n=5 rats in each group).
The right knee joint of the respective rat in the pathological control group, the comparative group, and the experimental groups 1 and 2 was intraarticularly injected with 30 μL of a monosodium iodoacetate (MIA) solution (50 g/L, in 0.9% normal saline). In addition, the right knee joint of the respective rat in the normal control group was intraarticularly injected with 30 μL of 0.9% normal saline.
On day 3 and day 14 after injection of the MIA solution, the right knee joint of the respective rat in the comparative group was intraarticularly injected with 30 μL of 1% HA, the right knee joint of the respective rat in the experimental group 1 was intraarticularly injected with 30 μL of the EGF solution (containing 20 μg/g EGF), the right knee joint of the respective rat in the experimental group 2 was intraarticularly injected with 30 μL of the mixture solution (containing 20 μg/g EGF), and the right knee joint of the respective rat in the pathological control group was intraarticularly injected with 30 μL of 0.9% normal saline. In addition, the rats of the normal control group received no treatment.
After determining the diameter of right knee joint at the end of day 28 as described in section D of this example, the rats in each group were sacrificed by virtue of 95% CO2 asphyxiation. Next, a blood sample was collected from the heart of each rat through arterial puncture using a 25G needle, and was then subjected to centrifugation at 1,500 g and 25° C. for 10 minutes, so as to obtain a serum sample. Thereafter, the right knee joint tissue of the respective rat in each group was obtained from each rat carcass and was washed with 0.9% normal saline.
The respective serum sample obtained in section E of this example was diluted 5-fold with RPMI 1640 medium. Thereafter, the content of cartilage oligomeric matrix protein (COMP) was determined using a rat COMP ELISA Kit (Cusabio, Cat. No. CSB-E13833r) in accordance with the manufacturer's instructions. In addition, the contents of TNF-α, IL-1β, IL-6, and IL-17A were respectively determined using a TNF-α ELISA Kit (Invitrogen, Cat. No. 88-7340-88), an IL-1β ELISA Kit (Invitrogen, Cat. No. 88-6010-22), an IL-6 ELISA Kit (Invitrogen, Cat. No. 88-50625-88), and an IL-17A ELISA Kit (Invitrogen, Cat. No. 88-7170-22) in accordance with the manufacturer's instructions. The content of prostaglandin E2 (PGE2) was determined using a PGE2 ELISA Kit (Cusabio, Cat. No. CSB-E07967r) in accordance with the manufacturer's instructions.
Moreover, the content of nitric oxide (NO) was determined using the Griess assay. Briefly, 100 μL of the respective serum sample obtained in section E of this example was mixed with 100 μL of a Griess reagent (containing 0.2% N-(1-Naphthyl)ethylenediamine, 2% sulfanilamide, and 5% phosphoric acid), followed by being left standing for reaction to proceed at room temperature for 10 minutes. The resultant reaction mixture was subsequently subjected to determination of absorbance at a wavelength of 540 nm (OD540) using a spectrophotometer. The OD540 values obtained were subsequently converted to concentration expressed in pg/mL based on a correlation curve previously prepared by plotting different known concentrations of sodium nitrate standards versus OD540 values thereof.
The data thus obtained were analyzed according to the method described in section 1 of “General Procedures”.

## EGF: Epidermal growth factor (Cat. No. 02-108, Joycom Bio-chem) dissolved in PBS, 20 μg/g EGF; given to experimental group 1 (NSDSECPLSHDGYCLHDGVCMYIEALDKYACNCVVGYIGERCQYRDLKWWELR; UniProt P01133 971-1023, looked up)
  content of cartilage oligomeric matrix protein (COMP): lower than that determined in the pathological control group
  content of IL-1β: lower than those determined in the pathological control group
  content of IL-6: lower than those determined in the pathological control group
  content of IL-17A: lower than those determined in the pathological control group
  content of TNF-α: lower than those determined in the pathological control group
  content of PGE2: lower than those determined in the pathological control group
  content of NO: lower than those determined in the pathological control group

## hyaluronic acid [HA, reference compound]
  content of cartilage oligomeric matrix protein (COMP): lower than that determined in the pathological control group
  content of IL-1β: lower than those determined in the pathological control group
  content of IL-6: lower than those determined in the pathological control group
  content of IL-17A: lower than those determined in the pathological control group
  content of TNF-α: lower than those determined in the pathological control group
  content of PGE2: lower than those determined in the pathological control group
  content of NO: lower than those determined in the pathological control group
